Laboratory results published in patent US20260053834A1, “COVALENT MODIFIERS OF AKT1 AND USES THEREOF” (Terremoto Biosciences, Inc., priority 2023, published 2026).

Columns and labels:
[1] = molecular target: T1, AKT1 WT (Homo sapiens, UniProt P31749); assay: Live cell target engagement by NanoBRET competitive probe displacement, AKT1 WT; format: binding; details: transfected HEK293 cells, 2 h at 37° C., read-out: AKT1 WT IC50: GeoMean IC50
T1 construct: expressed in transfected cells; host or cells: HEK293
T1 sequence (P31749 whole entry): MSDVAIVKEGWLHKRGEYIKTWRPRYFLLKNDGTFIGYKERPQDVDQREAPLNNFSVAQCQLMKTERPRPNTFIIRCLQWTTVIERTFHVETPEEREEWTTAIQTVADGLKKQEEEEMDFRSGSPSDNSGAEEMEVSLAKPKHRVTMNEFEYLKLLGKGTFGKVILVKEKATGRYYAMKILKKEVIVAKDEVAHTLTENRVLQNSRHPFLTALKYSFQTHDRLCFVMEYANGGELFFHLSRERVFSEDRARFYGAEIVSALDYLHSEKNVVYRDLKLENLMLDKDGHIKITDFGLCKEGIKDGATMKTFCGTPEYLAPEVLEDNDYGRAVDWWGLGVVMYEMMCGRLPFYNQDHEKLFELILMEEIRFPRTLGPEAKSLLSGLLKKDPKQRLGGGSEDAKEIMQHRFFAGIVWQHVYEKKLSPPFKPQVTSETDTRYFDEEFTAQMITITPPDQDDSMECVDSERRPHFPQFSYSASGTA

[2] = tested on: LAPC4 prostate cancer cells, which express the AKT1 E17K allele; assay: Antiproliferative effects in LAPC4 cells (CellTiter Glo, 72 h); format: cell-based; details: Homo sapiens, LAPC4, 72 h, read-out: LAPC4 proliferation IC50: GeoMean IC50
Method in brief: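 Cells grown in IMDM with 12% FBS, seeded at 1,000 cells/well and treated with compound dilutions in DMSO for 72 h. Intracellular ATP read by luminescence. IC50 from a log(inhibitor) vs. response Hill fit.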

[3] = molecular target: T2, AKT1 E17K (Homo sapiens, UniProt P31749, E17K); assay: Live cell target engagement by NanoBRET competitive probe displacement, AKT1 E17K; format: binding; details: transfected HEK293 cells, 2 h at 37° C., read-out: AKT1 E17K IC50: GeoMean IC50
T2 construct: expressed in transfected cells; host or cells: HEK293
T2 sequence (P31749 whole entry E17K): as the sequence (P31749 whole entry) above, with E17K counted along it

[4] = molecular target: T3, AKT2 (Homo sapiens, UniProt P31751); assay: Live cell target engagement by NanoBRET competitive probe displacement, AKT2; format: binding; details: transfected HEK293 cells, 2 h at 37° C., read-out: AKT2 IC50: GeoMean IC50
T3 construct: expressed in transfected cells; host or cells: HEK293
T3 sequence (P31751 whole entry): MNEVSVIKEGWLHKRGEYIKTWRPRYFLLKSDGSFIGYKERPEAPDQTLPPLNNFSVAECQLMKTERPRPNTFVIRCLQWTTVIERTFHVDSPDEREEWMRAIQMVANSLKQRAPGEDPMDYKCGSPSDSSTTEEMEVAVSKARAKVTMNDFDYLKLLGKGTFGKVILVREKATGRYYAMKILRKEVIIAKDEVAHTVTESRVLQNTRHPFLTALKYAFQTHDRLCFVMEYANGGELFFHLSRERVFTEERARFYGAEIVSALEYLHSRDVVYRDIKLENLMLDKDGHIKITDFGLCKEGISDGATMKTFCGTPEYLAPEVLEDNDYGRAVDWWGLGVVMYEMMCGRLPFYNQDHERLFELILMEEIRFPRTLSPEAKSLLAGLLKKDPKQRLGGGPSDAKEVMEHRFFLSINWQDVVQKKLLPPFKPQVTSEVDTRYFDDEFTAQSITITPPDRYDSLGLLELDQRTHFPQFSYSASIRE

Row | IC50 [1] | IC50 [2] | IC50 [3] | IC50 [4] | SMILES
1 | 100 to 2000 nM | 100 to 2000 nM | 10 to 100 nM | 100 to 2000 nM | Cc1cc2nc(-c3cccnc3N)n(-c3ccc4c(c3)CC[C@@H]4NC(=O)c3ccc(O)c(C=O)c3)c2nc1-n1cccn1 [Example 229, (S)—N-(5-(2-(2-aminopyridin-3-yl)-6-methyl-5-(1H-pyrazol-1-yl)-3H-imidazo[4,5-b]pyridin-3-yl)-2,3-dihydro-1H-inden-1-yl)-3-formyl-4-hydroxybenzamide]
2 | 100 to 2000 nM | 100 to 2000 nM | 10 to 100 nM | 100 to 2000 nM | C#Cc1cc(-n2cccn2)nc2c1nc(-c1cccnc1N)n2-c1ccc2c(c1)CC[C@@H]2NC(=O)c1ccc(O)c(C=O)c1 [Example 201, N-[(1S)-5-[2-(2-aminopyridin-3-yl)-7-ethynyl-5-(pyrazol-1-yl)imidazo[4,5-b]pyridin-3-yl]-2,3-dihydro-1H-inden-1-yl]-3-formyl-4-hydroxybenzamide]
3 | 100 to 2000 nM | 100 to 2000 nM | 10 to 100 nM | 100 to 2000 nM | Nc1ncccc1-c1nc2ccc(-c3ccccc3)nc2n1-c1ccc2c(c1)CC[C@@H]2NC(=O)c1cc(C=O)c(O)c(Cl)n1 [Example 176, (S)—N-(5-(2-(2-aminopyridin-3-yl)-5-phenyl-3H-imidazo[4,5-b]pyridin-3-yl)-2,3-dihydro-1H-inden-1-yl)-6-chloro-4-formyl-5-hydroxypicolinamide]
4 | ≥ 2000 nM | ≥ 2000 nM | ≥ 2000 nM | 100 to 2000 nM | Nc1ncccc1-c1nc2ccc(-n3cccn3)nc2n1-c1ccc2c(c1)CC[C@@H]2N1CCc2cc(O)c(C=O)cc2C1=O [Example 177, 2-[(1S)-5-[2-(2-aminopyridin-3-yl)-5-(pyrazol-1-yl)imidazo[4,5-b]pyridin-3-yl]-2,3-dihydro-1H-inden-1-yl]-6-hydroxy-1-oxo-3,4-dihydroisoquinoline-7-carbaldehyde]
5 | 10 to 100 nM | 100 to 2000 nM | 10 to 100 nM | 100 to 2000 nM | Nc1ncccc1-c1nc2ccc(-n3cccn3)nc2n1-c1ccc2c(c1)CC[C@@H]2NC(=O)c1cc(F)c(O)c(C=O)c1 [Example 81, N-[(1S)-5-[2-(2-aminopyridin-3-yl)-5-(pyrazol-1-yl)imidazo[4,5-b]pyridin-3-yl]-2,3-dihydro-1H-inden-1-yl]-3-fluoro-5-formyl-4-hydroxybenzamide]
6 | 10 to 100 nM | 100 to 2000 nM | 10 to 100 nM | 100 to 2000 nM | Nc1ncccc1-c1nc2cc(F)c(-n3cccn3)nc2n1-c1ccc2c(c1)CC[C@@H]2NC(=O)c1ccc(O)c(C=O)c1 [Example 248, (S)—N-(5-(2-(2-aminopyridin-3-yl)-6-fluoro-5-(1H-pyrazol-1-yl)-3H-imidazo[4,5-b]pyridin-3-yl)-2,3-dihydro-1H-inden-1-yl)-3-formyl-4-hydroxybenzamide]
7 | 100 to 2000 nM | 100 to 2000 nM | 10 to 100 nM | 100 to 2000 nM | COCc1cnn(-c2ccc3nc(-c4cccnc4N)n(-c4ccc5c(c4)CC[C@@H]5NC(=O)c4cc(C=O)c(O)cc4F)c3n2)c1 [Example 152, (S)—N-(5-(2-(2-aminopyridin-3-yl)-5-(4-(methoxymethyl)-1H-pyrazol-1-yl)-3H-imidazo[4,5-b]pyridin-3-yl)-2,3-dihydro-1H-inden-1-yl)-2-fluoro-5-formyl-4-hydroxybenzamide]
8 | < 10 nM | 10 to 100 nM | < 10 nM | 10 to 100 nM | Nc1ncccc1-c1nc2c(Cl)cc(-n3cccn3)nc2n1-c1ccc2c(c1)CC[C@@H]2NC(=O)c1cc(C=O)c(O)c(F)c1F [Example 212, N-[(1S)-5-[2-(2-aminopyridin-3-yl)-7-chloro-5-(pyrazol-1-yl)imidazo[4,5-b]pyridin-3-yl]-2,3-dihydro-1H-inden-1-yl]-2,3-difluoro-5-formyl-4-hydroxybenzamide]
9 | 10 to 100 nM | 100 to 2000 nM | 10 to 100 nM | 100 to 2000 nM | Nc1ncccc1-c1nc2ccc(-c3ccccc3)nc2n1-c1ccc2c(c1)CC[C@@H]2NC(=O)c1ccc(C=O)c(O)c1F [Example 31, N-[(1S)-5-[2-(2-aminopyridin-3-yl)-5-phenylimidazo[4,5-b]pyridin-3-yl]-2,3-dihydro-1H-inden-1-yl]-2-fluoro-4-formyl-3-hydroxybenzamide]
10 | 100 to 2000 nM | 100 to 2000 nM | 10 to 100 nM | ≥ 2000 nM | Cc1ccc2nc(-c3cccnc3N)n(-c3ccc4c(c3)CC[C@@H]4NC(=O)c3ccc(O)c(C=O)c3)c2n1 [Example 13, N-[(1S)-5-[2-(2-aminopyridin-3-yl)-5-methylimidazo[4,5-b]pyridin-3-yl]-2,3-dihydro-1H-inden-1-yl]-3-formyl-4-hydroxybenzamide]
11 | 10 to 100 nM | 100 to 2000 nM | 100 to 2000 nM | 100 to 2000 nM | Cn1ccnc1Nc1ccc(C(=O)N[C@H]2CCc3cc(-n4c(-c5cccnc5N)nc5ccc(-n6cccn6)nc54)ccc32)cc1C=O [Example 141, (S)—N-(5-(2-(2-aminopyridin-3-yl)-5-(1H-pyrazol-1-yl)-3H-imidazo[4,5-b]pyridin-3-yl)-2,3-dihydro-1H-inden-1-yl)-3-formyl-4-((1-methyl-1H-imidazol-2-yl)amino)benzamide]
12 | 100 to 2000 nM | ≥ 2000 nM | 100 to 2000 nM | 100 to 2000 nM | Cc1cnc(N)c(-c2nc3ccc(-n4cccn4)nc3n2-c2ccc3c(c2)CC[C@@H]3NC(=O)c2ccc(O)c(C=O)c2)c1 [Example 167, (S)—N-(5-(2-(2-amino-5-methylpyridin-3-yl)-5-(1H-pyrazol-1-yl)-3H-imidazo[4,5-b]pyridin-3-yl)-2,3-dihydro-1H-inden-1-yl)-3-formyl-4-hydroxybenzamide]
13 | ≥ 2000 nM | ≥ 2000 nM | ≥ 2000 nM | ≥ 2000 nM | N#Cc1cc(O)c(C=O)cc1C(=O)N[C@H]1CCc2cc(-n3c(-c4cccnc4N)nc4ccc(-n5cccn5)nc43)ccc21 [Example 250, (S)—N-(5-(2-(2-aminopyridin-3-yl)-5-(1H-pyrazol-1-yl)-3H-imidazo[4,5-b]pyridin-3-yl)-2,3-dihydro-1H-inden-1-yl)-2-cyano-5-formyl-4-hydroxybenzamide]
14 | 10 to 100 nM | 10 to 100 nM | 10 to 100 nM | 100 to 2000 nM | Nc1ncccc1-c1nc2ccc(-c3cnccn3)nc2n1-c1ccc2c(c1)CC[C@@H]2NC(=O)c1cc(C=O)c(O)c(F)c1F [Example 103, N-[(1S)-5-[2-(2-aminopyridin-3-yl)-5-(pyrazin-2-yl)imidazo[4,5-b]pyridin-3-yl]-2,3-dihydro-1H-inden-1-yl]-2,3-difluoro-5-formyl-4-hydroxybenzamide]
15 | 10 to 100 nM | 10 to 100 nM | 10 to 100 nM | 100 to 2000 nM | CSc1ccn(-c2ccc3nc(-c4cccnc4N)n(-c4ccc5c(c4)CC[C@@H]5NC(=O)c4ccc(O)c(C=O)c4)c3n2)n1 [Example 124, N-[(1S)-5-[2-(2-aminopyridin-3-yl)-5-[3-(methylsulfanyl)pyrazol-1-yl]imidazo[4,5-b]pyridin-3-yl]-2,3-dihydro-1H-inden-1-yl]-3-formyl-4-hydroxybenzamide]
16 | 100 to 2000 nM | 100 to 2000 nM | 10 to 100 nM | ≥ 2000 nM | CCc1ccc2nc(-c3cccnc3N)n(-c3ccc4c(c3)CC[C@@H]4NC(=O)c3ccc(O)c(C=O)c3)c2n1 [Example 43, (S)—N-(5-(2-(2-aminopyridin-3-yl)-5-ethyl-3H-imidazo[4,5-b]pyridin-3-yl)-2,3-dihydro-1H-inden-1-yl)-3-formyl-4-hydroxybenzamide]
17 | 10 to 100 nM | 10 to 100 nM | 10 to 100 nM | 100 to 2000 nM | Nc1ncccc1-c1nc2ccc(-n3ncc4cccnc43)nc2n1-c1ccc2c(c1)CC[C@@H]2NC(=O)c1cc(C=O)c(O)c(F)c1F [Example 172, (S)—N-(5-(2-(2-aminopyridin-3-yl)-5-(1H-pyrazolo[3,4-b]pyridin-1-yl)-3H-imidazo[4,5-b]pyridin-3-yl)-2,3-dihydro-1H-inden-1-yl)-2,3-difluoro-5-formyl-4-hydroxybenzamide]
18 | 10 to 100 nM | 100 to 2000 nM | 10 to 100 nM | 100 to 2000 nM | Nc1ncccc1-c1nc2ccc(-n3ccnn3)nc2n1-c1ccc2c(c1)CC[C@@H]2NC(=O)c1ccc(O)c(C=O)c1 [Example 92, N-[(1S)-5-[2-(2-aminopyridin-3-yl)-5-(1,2,3-triazol-1-yl)imidazo[4,5-b]pyridin-3-yl]-2,3-dihydro-1H-inden-1-yl]-3-formyl-4-hydroxybenzamide]
19 | 100 to 2000 nM | 100 to 2000 nM | 100 to 2000 nM | ≥ 2000 nM | CC(=O)Nc1ccc(C(=O)N[C@H]2CCc3cc(-n4c(-c5cccnc5N)nc5ccc(C)nc54)ccc32)cc1C=O [Example 45, N-[(1S)-5-[2-(2-aminopyridin-3-yl)-5-methylimidazo[4,5-b]pyridin-3-yl]-2,3-dihydro-1H-inden-1-yl]-4-acetamido-3-formylbenzamide]
20 | 10 to 100 nM | < 10 nM | 10 to 100 nM | 10 to 100 nM | Nc1ncccc1-c1nc2ccc(-n3ccc(N4CCC4)n3)nc2n1-c1ccc2c(c1)CC[C@@H]2NC(=O)c1ccc(O)c(C=O)c1 [Example 156, (S)—N-(5-(2-(2-aminopyridin-3-yl)-5-(3-(azetidin-1-yl)-1H-pyrazol-1-yl)-3H-imidazo[4,5-b]pyridin-3-yl)-2,3-dihydro-1H-inden-1-yl)-3-formyl-4-hydroxybenzamide]
